In ChEMBL document CHEMBL4483862, “Open-source discovery of chemical leads for next-generation chemoprotective antimalarials” (2018):

Test system: Plasmodium berghei
Assay: Luciferase/luciferin-expressing antifolate-resistant parasites were used to infect a culture of HepG2 cells that were pre-incubated with compounds. Infected hepatocytes emit light due to the luciferase reaction. Assay results are presented as the percent inhibition of light emission compared to control. […]
Format: functional
Details: sporozoite; for IC90: read-out: LUCIFERASE INFECTION ASSAY - IC90

## O=C(NCc1ccc(C(F)(F)F)cc1)Nc1cccc2cnccc12
HEPG2TOX_HILL_SLOPE 1.51, HEPG2TOX_R_SQUARED 0.691, read-out: LUCIFERASE INFECTION ASSAY - IC50
  IC50: > 10 µM
  IC90: > 10 µM

## Cc1ccccc1/C=N/NC(N)=S
HEPG2TOX_HILL_SLOPE 1.52, HEPG2TOX_R_SQUARED 0.966, read-out: LUCIFERASE INFECTION ASSAY - IC50
  IC50: > 17.1 µM
  IC90: > 17.1 µM

## Cc1cccc(N2CCN(C(=O)c3cccc(S(=O)(=O)N4CCc5ccccc5C4)c3)CC2C)c1 (centres undefined)
HEPG2TOX_HILL_SLOPE 1.53, HEPG2TOX_R_SQUARED 0.865, read-out: LUCIFERASE INFECTION ASSAY - IC50
  IC50: > 10 µM
  IC90: > 10 µM

## C=C(C)COc1ccc(-c2[nH]nc(C)c2-c2ccc(OC)c(OC)c2)c(O)c1
HEPG2TOX_HILL_SLOPE 1.51, HEPG2TOX_R_SQUARED 0.867, PBLUC_HILL_SLOPE 1.78, PBLUC_R_SQUARED 0.654, read-out: LUCIFERASE INFECTION ASSAY - IC50
  IC50: 0.535 µM
  IC90: 1.84 µM

## Cc1ccc2[nH]c(-c3ccccc3O)nc2c1
HEPG2TOX_HILL_SLOPE 1.55, HEPG2TOX_R_SQUARED 0.794, PBLUC_HILL_SLOPE 15.6, PBLUC_R_SQUARED 0.425, read-out: LUCIFERASE INFECTION ASSAY - IC50
  IC50: 1.54 µM
  IC90: 1.78 µM

## O=C(Nc1nnc(C(F)(F)F)s1)c1ccc(F)c(Cl)c1
HEPG2TOX_HILL_SLOPE 1.54, HEPG2TOX_R_SQUARED 0.943, PBLUC_HILL_SLOPE 14.8, PBLUC_R_SQUARED 0.531, read-out: LUCIFERASE INFECTION ASSAY - IC50
  IC50: 3.48 µM
  IC90: 4.03 µM

## COc1cc(OC)cc(-c2cnc3cnc(-c4ccccc4N(C)C)cn23)c1
HEPG2TOX_HILL_SLOPE 1.54, HEPG2TOX_R_SQUARED 0.879, PBLUC_HILL_SLOPE 8.17, PBLUC_R_SQUARED 0.657, read-out: LUCIFERASE INFECTION ASSAY - IC50
  IC50: 2.43 µM
  IC90: 3.18 µM

## CN(C)c1ccc(-c2cnc3cnc(-c4ccc(CO)cc4)cn23)cc1
HEPG2TOX_HILL_SLOPE 1.55, HEPG2TOX_R_SQUARED 0.978, PBLUC_HILL_SLOPE 1.15, PBLUC_R_SQUARED 0.872, read-out: LUCIFERASE INFECTION ASSAY - IC50
  IC50: 1.58 µM
  IC90: > 9.58 µM

## CC1CCCN(c2ccc(C#N)cn2)C1 (centres undefined)
HEPG2TOX_HILL_SLOPE 1.55, HEPG2TOX_R_SQUARED 0.88, PBLUC_HILL_SLOPE 1.47, PBLUC_R_SQUARED 0.333, read-out: LUCIFERASE INFECTION ASSAY - IC50
  IC50: > 10 µM
  IC90: > 10 µM

## CCN(c1ccc(NC(=S)Nc2cccc3ccccc23)cc1)C(C)C
HEPG2TOX_HILL_SLOPE 1.56, HEPG2TOX_R_SQUARED 0.289, PBLUC_HILL_SLOPE 3.28, PBLUC_R_SQUARED 0.342, read-out: LUCIFERASE INFECTION ASSAY - IC50
  IC50: 5.97 µM
  IC90: > 10 µM

## CCCc1c(C(=O)OCC)cnn1-c1c(Cl)cc(Cl)cc1Cl
HEPG2TOX_HILL_SLOPE 1.55, HEPG2TOX_R_SQUARED 0.952, PBLUC_HILL_SLOPE 4.67, PBLUC_R_SQUARED 0.0395, read-out: LUCIFERASE INFECTION ASSAY - IC50
  IC50: 8.3 µM
  IC90: > 9.12 µM

## Clc1ccc(-c2cn3c(-c4ccc5c(c4)OCO5)cnc3cn2)cc1
HEPG2TOX_HILL_SLOPE 1.51, HEPG2TOX_R_SQUARED 0.989, PBLUC_HILL_SLOPE 1.79, PBLUC_R_SQUARED 0.647, read-out: LUCIFERASE INFECTION ASSAY - IC50
  IC50: 2.01 µM
  IC90: 6.85 µM

## c1cncc(-c2nc(Nc3ccc4n[nH]cc4c3)c3ccccc3n2)c1
HEPG2TOX_HILL_SLOPE 1.55, HEPG2TOX_R_SQUARED 0.922, PBLUC_HILL_SLOPE 123, PBLUC_R_SQUARED 0.319, read-out: LUCIFERASE INFECTION ASSAY - IC50
  IC50: 3.33 µM
  IC90: 3.39 µM

## Cc1cccc(NC(=O)CSc2nc3ccccc3c3nc(C)nn23)c1
HEPG2TOX_HILL_SLOPE 1.51, HEPG2TOX_R_SQUARED 0.99, PBLUC_HILL_SLOPE 1.83, PBLUC_R_SQUARED 0.897, read-out: LUCIFERASE INFECTION ASSAY - IC50
  IC50: 0.237 µM
  IC90: 0.789 µM

## COc1cncc(-c2cnc3sc(NCC4CCOCC4)nn23)c1
HEPG2TOX_HILL_SLOPE 1.52, HEPG2TOX_R_SQUARED 0.935, PBLUC_HILL_SLOPE 11.6, PBLUC_R_SQUARED 0.526, read-out: LUCIFERASE INFECTION ASSAY - IC50
  IC50: 1.25 µM
  IC90: 1.51 µM

## CC(=O)c1cccc(-c2cnc3ccc(-c4ccc5c(c4)OCO5)nn23)c1
HEPG2TOX_HILL_SLOPE 1.55, HEPG2TOX_R_SQUARED 0.983, PBLUC_HILL_SLOPE 1.3, PBLUC_R_SQUARED 0.851, read-out: LUCIFERASE INFECTION ASSAY - IC50
  IC50: 1.46 µM
  IC90: 7.88 µM

## CC(=O)Nc1cccc(Nc2nccc3[nH]c(-c4ccccc4)cc23)c1
HEPG2TOX_HILL_SLOPE 1.53, HEPG2TOX_R_SQUARED 0.824, PBLUC_HILL_SLOPE 2.66, PBLUC_R_SQUARED 0.657, read-out: LUCIFERASE INFECTION ASSAY - IC50
  IC50: 0.328 µM
  IC90: 0.748 µM

## C/C(=N\NC(N)=S)c1csc(-c2ccccc2)n1
HEPG2TOX_HILL_SLOPE 1.53, HEPG2TOX_R_SQUARED 0.983, PBLUC_HILL_SLOPE 21.6, PBLUC_R_SQUARED 0.0721, read-out: LUCIFERASE INFECTION ASSAY - IC50
  IC50: 10.7 µM
  IC90: 11.9 µM

## O=[N+]([O-])c1ccccc1CS(=O)(=O)c1nc2ccccc2s1
HEPG2TOX_HILL_SLOPE 1.54, HEPG2TOX_R_SQUARED 0.3, PBLUC_HILL_SLOPE 1.66, PBLUC_R_SQUARED 0.0862, read-out: LUCIFERASE INFECTION ASSAY - IC50
  IC50: 5.91 µM
  IC90: > 9.87 µM

## CCOc1ccc(S(=O)(=O)CC2=NCCc3cc(OC)c(OC)cc32)cc1
HEPG2TOX_HILL_SLOPE 1.55, HEPG2TOX_R_SQUARED 0.854, PBLUC_HILL_SLOPE 1.98, PBLUC_R_SQUARED 0.428, read-out: LUCIFERASE INFECTION ASSAY - IC50
  IC50: 1.78 µM
  IC90: 5.39 µM

## Cc1ccc(/N=C/c2c(-c3ccccc3Cl)[nH]c3ccccc23)cc1C
HEPG2TOX_HILL_SLOPE 1.53, HEPG2TOX_R_SQUARED 0.955, PBLUC_HILL_SLOPE 2.45, PBLUC_R_SQUARED 0.607, read-out: LUCIFERASE INFECTION ASSAY - IC50
  IC50: 1.68 µM
  IC90: 4.13 µM

## N#C/C(=N\Nc1ccc(Cl)cc1)C(=O)c1ccc(Cl)cc1
HEPG2TOX_HILL_SLOPE 1.51, HEPG2TOX_R_SQUARED 0.876, PBLUC_HILL_SLOPE 2.05, PBLUC_R_SQUARED 0.674, read-out: LUCIFERASE INFECTION ASSAY - IC50
  IC50: 0.996 µM
  IC90: 2.91 µM

## COc1ccc(-[n+]2c(C)cn3c2CCc2ccccc2-3)cc1
HEPG2TOX_HILL_SLOPE 1.53, HEPG2TOX_R_SQUARED 0.982, PBLUC_HILL_SLOPE 13.1, PBLUC_R_SQUARED 0.299, read-out: LUCIFERASE INFECTION ASSAY - IC50
  IC50: 3.35 µM
  IC90: 3.96 µM

## Cc1cccc(CN2CCC3(CC2)C(=O)N(Cc2ccccn2)C(=O)N3CCc2ccccc2)c1
HEPG2TOX_HILL_SLOPE 1.55, HEPG2TOX_R_SQUARED 0.857, PBLUC_HILL_SLOPE 4.1, PBLUC_R_SQUARED 0.48, read-out: LUCIFERASE INFECTION ASSAY - IC50
  IC50: 5.65 µM
  IC90: > 7.04 µM

## Cc1cc(C(=O)Cn2c(CO)nc3ccccc32)c(C)n1-c1ccccc1
HEPG2TOX_HILL_SLOPE 1.51, HEPG2TOX_R_SQUARED 0.587, PBLUC_HILL_SLOPE 1.38, 1.35, PBLUC_R_SQUARED 0.541, 0.883, read-out: LUCIFERASE INFECTION ASSAY - IC50
  IC50: 3.87 µM
  IC90: > 10 µM

## O=C(NC1CCN(c2ccc(S(=O)(=O)C(F)(F)F)cc2)CC1)C1CC1
HEPG2TOX_HILL_SLOPE 1.52, HEPG2TOX_R_SQUARED 0.775, PBLUC_HILL_SLOPE 1.87, PBLUC_R_SQUARED 0.699, read-out: LUCIFERASE INFECTION ASSAY - IC50
  IC50: 0.799 µM
  IC90: 2.59 µM

## CNc1nc2cnc(Nc3cccc(C)c3)cc2n1-c1cccc(C(F)(F)F)c1
HEPG2TOX_HILL_SLOPE 1.54, HEPG2TOX_R_SQUARED 0.691, PBLUC_HILL_SLOPE 2.02, PBLUC_R_SQUARED 0.694, read-out: LUCIFERASE INFECTION ASSAY - IC50
  IC50: 4.3 µM
  IC90: > 10 µM

## Fc1cccc(-c2cn3c(-c4ccc5ncccc5c4)cnc3cn2)c1
HEPG2TOX_HILL_SLOPE 1.51, HEPG2TOX_R_SQUARED 0.947, PBLUC_HILL_SLOPE 2.49, PBLUC_R_SQUARED 0.764, read-out: LUCIFERASE INFECTION ASSAY - IC50
  IC50: 0.408 µM
  IC90: 0.986 µM

## Cc1ccc(CNc2ncnc3sccc23)cc1
HEPG2TOX_HILL_SLOPE 1.53, HEPG2TOX_R_SQUARED 0.949, PBLUC_HILL_SLOPE 1.13, PBLUC_R_SQUARED 0.759, read-out: LUCIFERASE INFECTION ASSAY - IC50
  IC50: 3.63 µM
  IC90: > 10 µM

## CC(=O)c1cccc(-c2cnc3ccc(-c4cccc(C(N)=O)c4)nn23)c1
HEPG2TOX_HILL_SLOPE 1.55, HEPG2TOX_R_SQUARED 0.943, PBLUC_HILL_SLOPE 2.62, PBLUC_R_SQUARED 0.854, read-out: LUCIFERASE INFECTION ASSAY - IC50
  IC50: 0.271 µM
  IC90: 0.628 µM

## COc1cc(CNC(=O)Nc2nc3ccccc3s2)cc(OC)c1OC
HEPG2TOX_HILL_SLOPE 1.53, HEPG2TOX_R_SQUARED 0.847, PBLUC_HILL_SLOPE 0.688, PBLUC_R_SQUARED 0.648, read-out: LUCIFERASE INFECTION ASSAY - IC50
  IC50: 0.692 µM
  IC90: > 10 µM

## S=C(Nc1ccccc1)N1CCCN(c2nc3ccc(Cl)cc3s2)CC1
HEPG2TOX_HILL_SLOPE 1.54, HEPG2TOX_R_SQUARED 0.918, PBLUC_HILL_SLOPE 12.4, PBLUC_R_SQUARED 0.732, read-out: LUCIFERASE INFECTION ASSAY - IC50
  IC50: 2.65 µM
  IC90: 3.16 µM
